Measured values: patent US20240059671A1, “TYROSINE KINASE 2 (TYK2) DEGRADATION COMPOUNDS AND METHODS OF USE” (CULLGEN (SHANGHAI), INC., priority 2020, published 2024)

Target: TYK2 (Homo sapiens, UniProt P29597)
Assay: TYK2 protein degradation in NOMO-1 cells by immunoblotting
Assay type: cell-based
Parameters: endogenous in cells
Settings: NOMO-1 cells
Procedure: NOMO-1 cells were treated with CPD-155, CPD-157, and CPD-158 at 0.1, 1, 10, 100 and 1000 nM concentrations for 16 hours. […] Data shown that CPD-155, CPD-157, and CPD-158 are very potent at the reduction protein levels of TYK2.
MOLT-4 or NOMO-1 cells were cultured at 37° C. with 5% CO2 in RPMI 1640 Medium supplemented with 10% fetal bovine serum. Cells were authenticated using the short tandem repeat (STR) assays. Mycoplasma test results were negative.
Cultured cells were washed with cold PBS once and lysed in cold RIPA buffer supplemented with protease inhibitors and phosphatase inhibitors (Beyotime Biotechnology). The solutions were then incubated at 4° C. for 30 minutes with gentle agitation to fully lyse cells. Cell lysates were centrifuged at 13,000 rpm for 10 minutes at 4° C. and pellets were discarded. Total protein concentrations in the lysates were determined by BCA assays (Beyotime Biotechnology). Cell lysates were mixed with Laemmli loading buffer to 1× and heated at 99° C. for 5 min. Proteins were resolved on SDS-PAGE and visualized by chemiluminescence. Images were taken by a ChemiDoc MP Imaging system (Bio-Rad). Protein bands were quantitated using the accompanied software provided by Bio-Rad.

Sequence of TYK2 (P29597 whole entry): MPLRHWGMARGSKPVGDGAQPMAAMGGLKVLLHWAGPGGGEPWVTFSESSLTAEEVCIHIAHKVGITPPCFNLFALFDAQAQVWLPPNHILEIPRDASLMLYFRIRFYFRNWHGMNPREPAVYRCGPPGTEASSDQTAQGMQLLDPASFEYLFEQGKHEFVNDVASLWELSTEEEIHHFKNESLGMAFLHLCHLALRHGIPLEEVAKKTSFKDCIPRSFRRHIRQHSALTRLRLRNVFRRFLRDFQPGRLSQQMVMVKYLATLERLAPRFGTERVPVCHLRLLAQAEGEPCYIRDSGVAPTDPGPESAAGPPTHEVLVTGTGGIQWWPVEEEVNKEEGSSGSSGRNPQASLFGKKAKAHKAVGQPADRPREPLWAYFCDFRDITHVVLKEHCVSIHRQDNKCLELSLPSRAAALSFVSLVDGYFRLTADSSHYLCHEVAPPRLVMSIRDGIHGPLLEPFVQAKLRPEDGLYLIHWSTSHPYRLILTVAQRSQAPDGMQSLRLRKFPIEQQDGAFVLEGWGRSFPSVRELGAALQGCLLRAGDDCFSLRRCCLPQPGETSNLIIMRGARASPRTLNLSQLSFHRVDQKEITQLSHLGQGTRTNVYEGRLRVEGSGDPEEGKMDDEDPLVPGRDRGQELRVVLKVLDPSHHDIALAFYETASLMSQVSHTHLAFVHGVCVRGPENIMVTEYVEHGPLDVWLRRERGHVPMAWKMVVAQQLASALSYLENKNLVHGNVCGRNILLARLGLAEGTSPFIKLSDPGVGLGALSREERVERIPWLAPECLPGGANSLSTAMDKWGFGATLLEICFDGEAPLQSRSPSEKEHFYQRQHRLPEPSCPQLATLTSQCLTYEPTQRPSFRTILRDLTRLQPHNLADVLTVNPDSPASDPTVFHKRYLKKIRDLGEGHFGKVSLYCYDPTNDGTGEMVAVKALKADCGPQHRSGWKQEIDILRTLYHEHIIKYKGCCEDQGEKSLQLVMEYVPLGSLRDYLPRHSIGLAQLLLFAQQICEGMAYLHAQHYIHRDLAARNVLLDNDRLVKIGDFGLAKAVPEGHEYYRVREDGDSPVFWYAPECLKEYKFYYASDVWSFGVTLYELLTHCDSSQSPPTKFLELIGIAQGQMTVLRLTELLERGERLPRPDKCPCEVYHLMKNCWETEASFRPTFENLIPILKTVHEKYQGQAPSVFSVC

Row | Structure (SMILES) | TYK2 Degradation (NOMO-1, 10 nM) | TYK2 Degradation (NOMO-1, 100 nM)
1 | CNC(=O)c1nnc(Nc2ccc(C#CC3CN(C(=O)CCCC(=O)N[C@H](C(=O)N4C[C@H](O)C[C@H]4C(=O)N[C@@H](C)c4ccc(-c5scnc5C)cc4)C(C)(C)C)C3)cn2)cc1Nc1cccc(-c2ncn(C)n2)c1OC [CPD-135, 6-((5-((1-(5-(((S)-1-((2S,4R)-4-Hydroxy-2-(((S)-1-(4-(4-methylthiazol-5-yl)phenyl)ethyl)carbamoyl)pyrrolidin-1-yl)-3,3-dimethyl-1-oxobutan-2-yl)amino)-5-oxopentanoyl)azetidin-3-yl)ethynyl)pyridin-2-yl)amino)-4-((2-methoxy-3-(1-methyl-1H-1,2,4-triazol-3-yl)phenyl)amino)-N-methylpyridazine-3-carboxamide] | B (B: <60% TYK2 degradation, and >20% TYK2 degradation) | A (A: ≥60% TYK2 degradation)
2 | CNC(=O)c1nnc(Nc2ccc(C(=O)NCCOCCNc3ccc4c(c3)C(=O)N(C3CCC(=O)NC3=O)C4=O)cn2)cc1Nc1cccc(-c2ncn(C)n2)c1OC (stereo not shown) [CPD-168, 6-((5-((2-(2-((2-(2,6-dioxopiperidin-3-yl)-1,3-dioxoisoindolin-5-yl)amino)ethoxy)ethyl)carbamoyl)pyridin-2-yl)amino)-4-((2-methoxy-3-(1-methyl-1H-1,2,4-triazol-3-yl)phenyl)amino)-N-methylpyridazine-3-carboxamide] | – | C (C: ≤20% TYK2 degradation)
3 | CNC(=O)c1nnc(Nc2ccc(C#CC3CCN(C(=O)CCCCC(=O)N[C@H](C(=O)N4C[C@H](O)C[C@H]4C(=O)N[C@@H](C)c4ccc(-c5scnc5C)cc4)C(C)(C)C)CC3)cn2)cc1Nc1cccc(-c2ncn(C)n2)c1OC [CPD-117, 6-((5-((1-(6-(((S)-1-((2S,4R)-4-Hydroxy-2-(((S)-1-(4-(4-methylthiazol-5-yl)phenyl)ethyl)carbamoyl)pyrrolidin-1-yl)-3,3-dimethyl-1-oxobutan-2-yl)amino)-6-oxohexanoyl)piperidin-4-yl)ethynyl)pyridin-2-yl)amino)-4-((2-methoxy-3-(1-methyl-1H-1,2,4-triazol-3-yl)phenyl)amino)-N-methylpyridazine-3-carboxamide] | C (C: ≤20% TYK2 degradation) | A (A: ≥60% TYK2 degradation)
4 | CNC(=O)c1nnc(Nc2ccc(C(=O)NCCCCCCCCC(=O)N[C@H](C(=O)N3C[C@H](O)C[C@H]3C(=O)N[C@@H](C)c3ccc(-c4scnc4C)cc3)C(C)(C)C)cn2)cc1Nc1cccc(-c2ncn(C)n2)c1OC [CPD-144, 6-((5-((9-(((S)-1-((2S,4R)-4-hydroxy-2-(((S)-1-(4-(4-methylthiazol-5-yl)phenyl)ethyl)carbamoyl)pyrrolidin-1-yl)-3,3-dimethyl-1-oxobutan-2-yl)amino)-9-oxononyl)carbamoyl)pyridin-2-yl)amino)-4-((2-methoxy-3-(1-methyl-1H-1,2,4-triazol-3-yl)phenyl)amino)-N-methylpyridazine-3-carboxamide] | A (A: ≥60% TYK2 degradation) | A (A: ≥60% TYK2 degradation)
5 | CNC(=O)c1nnc(Nc2ccc(N3CCN(C4CCN(C(=O)CCCCCCCC(=O)N[C@H](C(=O)N5C[C@H](O)C[C@H]5C(=O)N[C@@H](C)c5ccc(-c6scnc6C)cc5)C(C)(C)C)CC4)CC3)cn2)cc1Nc1cccc(-c2ncn(C)n2)c1OC [CPD-150, 6-((5-(4-(1-(9-(((S)-1-((2S,4R)-4-hydroxy-2-(((S)-1-(4-(4-methylthiazol-5-yl)phenyl)ethyl)carbamoyl)pyrrolidin-1-yl)-3,3-dimethyl-1-oxobutan-2-yl)amino)-9-oxononanoyl)piperidin-4-yl)piperazin-1-yl)pyridin-2-yl)amino)-4-((2-methoxy-3-(1-methyl-1H-1,2,4-triazol-3-yl)phenyl)amino)-N-methylpyridazine-3-carboxamide] | A (A: ≥60% TYK2 degradation) | A (A: ≥60% TYK2 degradation)
6 | CNC(=O)c1nnc(Nc2ccc(N3CCN(CCCCCCCC(=O)N[C@H](C(=O)N4C[C@H](O)C[C@H]4C(=O)N[C@@H](C)c4ccc(-c5scnc5C)cc4)C(C)(C)C)CC3)cn2)cc1Nc1cccc(-c2ncn(C)n2)c1OC [CPD-113, 6-((5-(4-(8-(((S)-1-((2S,4R)-4-Hydroxy-2-(((S)-1-(4-(4-methylthiazol-5-yl)phenyl)ethyl)carbamoyl)pyrrolidin-1-yl)-3,3-dimethyl-1-oxobutan-2-yl)amino)-8-oxooctyl)piperazin-1-yl)pyridin-2-yl)amino)-4-((2-methoxy-3-(1-methyl-1H-1,2,4-triazol-3-yl)phenyl)amino)-N-methylpyridazine-3-carboxamide] | B (B: <60% TYK2 degradation, and >20% TYK2 degradation) | A (A: ≥60% TYK2 degradation)
7 | CNC(=O)c1nnc(Nc2ccc(C(=O)NCCCCCCNc3ccc4c(c3)C(=O)N(C3CCC(=O)NC3=O)C4=O)cn2)cc1Nc1cccc(-c2ncn(C)n2)c1OC (stereo not shown) [CPD-165, 6-((5-((6-((2-(2,6-dioxopiperidin-3-yl)-1,3-dioxoisoindolin-5-yl)amino)hexyl)carbamoyl)pyridin-2-yl)amino)-4-((2-methoxy-3-(1-methyl-1H-1,2,4-triazol-3-yl)phenyl)amino)-N-methylpyridazine-3-carboxamide] | C (C: ≤20% TYK2 degradation) | C (C: ≤20% TYK2 degradation)

Now from value to molecule:

Row | TYK2 Degradation (NOMO-1, 10 nM) | TYK2 Degradation (NOMO-1, 100 nM) | Structure (SMILES)
8 | A (A: ≥60% TYK2 degradation) | A (A: ≥60% TYK2 degradation) | CNC(=O)c1nnc(Nc2ccc(N3CCN(C4CCN(C(=O)CCCCCC(=O)N[C@H](C(=O)N5C[C@H](O)C[C@H]5C(=O)N[C@@H](C)c5ccc(-c6scnc6C)cc5)C(C)(C)C)CC4)CC3)cn2)cc1Nc1cccc(-c2ncn(C)n2)c1OC [CPD-148, 6-((5-(4-(1-(7-(((S)-1-((2S,4R)-4-hydroxy-2-(((S)-1-(4-(4-methylthiazol-5-yl)phenyl)ethyl)carbamoyl)pyrrolidin-1-yl)-3,3-dimethyl-1-oxobutan-2-yl)amino)-7-oxoheptanoyl)piperidin-4-yl)piperazin-1-yl)pyridin-2-yl)amino)-4-((2-methoxy-3-(1-methyl-1H-1,2,4-triazol-3-yl)phenyl)amino)-N-methylpyridazine-3-carboxamide]
9 | A (A: ≥60% TYK2 degradation) | A (A: ≥60% TYK2 degradation) | CNC(=O)c1nnc(Nc2ccc(C(=O)NCCCCCCCC(=O)N[C@H](C(=O)N3C[C@H](O)C[C@H]3C(=O)N[C@@H](C)c3ccc(-c4scnc4C)cc3)C(C)(C)C)cn2)cc1Nc1cccc(-c2ncn(C)n2)c1OC [CPD-143, 6-((5-((8-(((S)-1-((2S,4R)-4-hydroxy-2-(((S)-1-(4-(4-methylthiazol-5-yl)phenyl)ethyl)carbamoyl)pyrrolidin-1-yl)-3,3-dimethyl-1-oxobutan-2-yl)amino)-8-oxooctyl)carbamoyl)pyridin-2-yl)amino)-4-((2-methoxy-3-(1-methyl-1H-1,2,4-triazol-3-yl)phenyl)amino)-N-methylpyridazine-3-carboxamide]
10 | – | C (C: ≤20% TYK2 degradation) | CNC(=O)c1nnc(Nc2ccc(C(=O)NCCCCCCCNc3ccc4c(c3)C(=O)N(C3CCC(=O)NC3=O)C4=O)cn2)cc1Nc1cccc(-c2ncn(C)n2)c1OC (stereo not shown) [CPD-166, 6-((5-((7-((2-(2,6-dioxopiperidin-3-yl)-1,3-dioxoisoindolin-5-yl)amino)heptyl)carbamoyl)pyridin-2-yl)amino)-4-((2-methoxy-3-(1-methyl-1H-1,2,4-triazol-3-yl)phenyl)amino)-N-methylpyridazine-3-carboxamide]
11 | A (A: ≥60% TYK2 degradation) | A (A: ≥60% TYK2 degradation) | CNC(=O)c1nnc(Nc2ccc(C#CC3CCN(C(=O)CCCCCCCCC(=O)N[C@H](C(=O)N4C[C@H](O)C[C@H]4C(=O)N[C@@H](C)c4ccc(-c5scnc5C)cc4)C(C)(C)C)CC3)cn2)cc1Nc1cccc(-c2ncn(C)n2)c1OC [CPD-121, 6-((5-((1-(10-(((S)-1-((2S,4R)-4-hydroxy-2-(((5)-1-(4-(4-methylthiazol-5-yl)phenyl)ethyl)carbamoyl)pyrrolidin-1-yl)-3,3-dimethyl-1-oxobutan-2-yl)amino)-10-oxodecanoyl)piperidin-4-yl)ethynyl)pyridin-2-yl)amino)-4-((2-methoxy-3-(1-methyl-1H-1,2,4-triazol-3-yl)phenyl)amino)-N-methylpyridazine-3-carboxamide]
12 | A (A: ≥60% TYK2 degradation) | A (A: ≥60% TYK2 degradation) | CNC(=O)c1nnc(Nc2ccc(N3CCN(C(=O)CCCCCCC(=O)N[C@H](C(=O)N4C[C@H](O)C[C@H]4C(=O)N[C@@H](C)c4ccc(-c5scnc5C)cc4)C(C)(C)C)CC3)cn2)cc1Nc1cccc(-c2ncn(C)n2)c1OC [CDP-112, 6-((5-(4-(8-(((S)-1-((2S,4R)-4-Hydroxy-2-(((S)-1-(4-(4-methylthiazol-5-yl)phenyl)ethyl)carbamoyl)pyrrolidin-1-yl)-3,3-dimethyl-1-oxobutan-2-yl)amino)-8-oxooctanoyl)piperazin-1-yl)pyridin-2-yl)amino)-4-((2-methoxy-3-(1-methyl-1H-1,2,4-triazol-3-yl)phenyl)amino)-N-methylpyridazine-3-carboxamide]
